Assay results: US12371428B2 (Exelixis, Inc., priority 2019, dated 2025)

Columns and labels:
[1] = molecular target: Met (phospho-Met, HGF-stimulated PC-3 prostate cancer cells) (Homo sapiens (Human), UniProt P08581); test: Met autophosphorylation ELISA in PC-3 cells (Example F); format: cell-based; conditions: cellular activity; Met autophosphorylation ELISA in PC-3 cells; read-out: c-Met IC50
Procedure, shortened: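 Compounds were tested on HGF-stimulated PC-3 cells. After 24 h culture and 3 h serum starvation, cells got compound for 1 h and 100 ng/mL HGF for 10 min, and Met tyrosine phosphorylation was measured by ELISA.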

[2] = molecular target: Human KDR (residues 790-1356) (Homo sapiens (Human), UniProt P35968); test: Human KDR kinase assay, HTRF KinEase (Example B-2); format: biochemical; conditions: protocol of Example B-2 (other compounds)
Procedure, shortened: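 Ten compound concentrations (3% DMSO final) were pre-plated, then KDR (790-1356) with biotinylated peptide in Mg/Mn/DTT buffer was added; ATP at Km (4.0 μM) started a 40 min room-temperature reaction. Detection used Eu-TK antibody and SA-XL665 in EDTA buffer; activity normalized to DMSO and reference inhibitor, IC50 by logistic fit.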

Sequence of Human KDR (residues 790-1356) (P35968 790-1356): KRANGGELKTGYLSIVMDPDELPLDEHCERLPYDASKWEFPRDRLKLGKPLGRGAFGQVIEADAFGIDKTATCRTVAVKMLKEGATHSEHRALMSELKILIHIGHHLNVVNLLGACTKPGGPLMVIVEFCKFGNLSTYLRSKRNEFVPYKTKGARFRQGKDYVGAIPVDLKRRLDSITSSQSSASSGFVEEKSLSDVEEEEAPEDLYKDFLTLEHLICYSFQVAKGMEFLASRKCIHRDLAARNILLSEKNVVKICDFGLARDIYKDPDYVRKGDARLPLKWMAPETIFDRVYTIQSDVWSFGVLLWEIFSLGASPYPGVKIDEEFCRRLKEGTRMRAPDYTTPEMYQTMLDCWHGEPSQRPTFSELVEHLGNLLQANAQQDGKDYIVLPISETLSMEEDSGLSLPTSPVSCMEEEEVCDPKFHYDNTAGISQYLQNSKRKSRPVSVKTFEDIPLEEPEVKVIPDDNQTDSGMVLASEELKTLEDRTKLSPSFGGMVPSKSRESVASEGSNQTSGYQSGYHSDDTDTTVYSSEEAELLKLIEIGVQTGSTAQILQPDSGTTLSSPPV
Sequence of Met (phospho-Met, HGF-stimulated PC-3 prostate cancer cells) (P08581 25-1390): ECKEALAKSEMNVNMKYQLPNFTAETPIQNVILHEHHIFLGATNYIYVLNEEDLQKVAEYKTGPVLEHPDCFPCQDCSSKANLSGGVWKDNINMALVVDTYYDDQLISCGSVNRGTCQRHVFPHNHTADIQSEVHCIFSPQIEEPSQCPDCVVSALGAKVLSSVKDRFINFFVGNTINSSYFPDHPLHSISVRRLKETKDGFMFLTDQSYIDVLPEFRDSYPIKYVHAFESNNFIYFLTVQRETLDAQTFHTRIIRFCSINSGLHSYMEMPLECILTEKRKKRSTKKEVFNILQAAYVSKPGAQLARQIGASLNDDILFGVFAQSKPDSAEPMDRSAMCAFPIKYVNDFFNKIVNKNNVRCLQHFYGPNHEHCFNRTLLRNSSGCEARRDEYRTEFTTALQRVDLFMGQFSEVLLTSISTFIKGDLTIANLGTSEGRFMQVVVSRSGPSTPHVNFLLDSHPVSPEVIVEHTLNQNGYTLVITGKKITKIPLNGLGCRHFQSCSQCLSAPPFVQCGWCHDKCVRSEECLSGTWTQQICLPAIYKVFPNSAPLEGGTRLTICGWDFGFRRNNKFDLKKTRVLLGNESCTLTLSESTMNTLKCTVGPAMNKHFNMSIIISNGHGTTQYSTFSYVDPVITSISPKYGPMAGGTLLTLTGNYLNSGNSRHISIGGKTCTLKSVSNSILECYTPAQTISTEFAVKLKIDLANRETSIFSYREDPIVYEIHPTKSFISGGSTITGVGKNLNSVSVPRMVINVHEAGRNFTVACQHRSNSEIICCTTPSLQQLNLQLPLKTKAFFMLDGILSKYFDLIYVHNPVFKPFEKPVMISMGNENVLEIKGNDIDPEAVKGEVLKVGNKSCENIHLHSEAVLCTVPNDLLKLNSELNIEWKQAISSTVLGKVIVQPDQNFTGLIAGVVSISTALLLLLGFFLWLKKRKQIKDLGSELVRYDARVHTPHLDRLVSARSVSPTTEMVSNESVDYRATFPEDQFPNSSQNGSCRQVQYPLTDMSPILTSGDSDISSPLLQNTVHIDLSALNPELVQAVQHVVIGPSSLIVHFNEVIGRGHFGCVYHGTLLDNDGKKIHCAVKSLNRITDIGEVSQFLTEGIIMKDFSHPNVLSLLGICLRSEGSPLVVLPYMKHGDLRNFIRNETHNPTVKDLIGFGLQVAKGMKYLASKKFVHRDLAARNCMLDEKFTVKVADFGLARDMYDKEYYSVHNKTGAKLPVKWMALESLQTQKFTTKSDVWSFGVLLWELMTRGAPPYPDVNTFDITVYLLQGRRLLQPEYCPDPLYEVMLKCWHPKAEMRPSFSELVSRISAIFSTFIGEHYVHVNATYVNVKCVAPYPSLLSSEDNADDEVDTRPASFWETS

IC50 [1] [nM]	IC50 [2] [nM]	SMILES
< 100	< 100	COc1cc2nccc(Oc3ccc(NC(=O)c4c(C)ncn(-c5ccc(F)cc5)c4=O)cc3F)c2nc1OC [Compound 98, N-[4-[(6,7-Dimethoxy-1,5-naphthyridin-4-yl)oxy]-3-fluorophenyl]-1-(4-fluorophenyl)-4-methyl-6-oxopyrimidine-5-carboxamide]
< 100	< 100	COc1cc2nccc(Oc3ccc(NC(=O)c4cnc(N(C)C)n(-c5ccc(F)cc5)c4=O)cc3F)c2nc1OC [Compound 100, N-[4-[(6,7-Dimethoxy-1,5-naphthyridin-4-yl)oxy]-3-fluorophenyl]-2-(dimethylamino)-1-(4-fluorophenyl)-6-oxopyrimidine-5-carboxamide]
< 100	< 100	COc1cc2nccc(Oc3ccc(NC(=O)c4c(C)nc(C)n(-c5ccc(F)cc5)c4=O)cc3F)c2nc1OC [Compound 101, N-[4-[(6,7-Dimethoxy-1,5-naphthyridin-4-yl)oxy]-3-fluorophenyl]-1-(4-fluorophenyl)-2,4-dimethyl-6-oxopyrimidine-5-carboxamide]
< 100	> 300	COc1ccc2nccc(Oc3ccc(NC(=O)c4cn(C)c(C)c(-c5ccc(F)cc5)c4=O)cc3F)c2n1 [Compound 113, N-[3-Fluoro-4-[(6-methoxy-1,5-naphthyridin-4-yl)oxy]phenyl]-5-(4-fluorophenyl)-1,6-dimethyl-4-oxopyridine-3-carboxamide]
< 100	> 300	COc1ccc2c(Oc3ccc(NC(=O)c4cn(C(C)C)c(C)c(-c5ccc(F)cc5)c4=O)cc3F)ccnc2c1 [Compound 106, N-[3-Fluoro-4-(7-methoxyquinolin-4-yl)oxyphenyl]-5-(4-fluorophenyl)-6-methyl-4-oxo-1-propan-2-ylpyridine-3-carboxamide]
< 100	< 100	COc1cc2nccc(Oc3ccc(NC(=O)c4cncc(-c5ccc(F)cc5)c4O)cc3)c2nc1OC [Compound 118, N-[4-[(6,7-Dimethoxy-1,5-naphthyridin-4-yl)oxy]phenyl]-5-(4-fluorophenyl)-4-hydroxypyridine-3-carboxamide]
100 to 300	> 300	COc1cnc2c(Oc3ccc(NC(=O)c4cn(C)c(C)c(-c5ccc(F)cc5)c4=O)cc3)ccnc2c1 [Compound 111, 5-(4-Fluorophenyl)-N-[4-[(7-methoxy-1,5-naphthyridin-4-yl)oxy]phenyl]-1,6-dimethyl-4-oxopyridine-3-carboxamide]

The next lines start with the compound.

SMILES	IC50 [1] [nM]	IC50 [2] [nM]
COc1cc2nccc(Oc3ccc(NC(=O)c4cn(C(C)C)c(C)c(-c5ccc(F)cc5)c4=O)cc3)c2nc1OC [Compound 115, N-[4-[(6,7-Dimethoxy-1,5-naphthyridin-4-yl)oxy]phenyl]-5-(4-fluorophenyl)-6-methyl-4-oxo-1-propan-2-ylpyridine-3-carboxamide]	< 100	< 100
COc1cc2nccc(Oc3ccc(NC(=O)c4c[nH]c(=O)n(-c5ccc(F)cc5)c4=O)cc3F)c2nc1OC [Compound 102, N-[4-[(6,7-Dimethoxy-1,5-naphthyridin-4-yl)oxy]-3-fluorophenyl]-3-(4-fluorophenyl)-2,4-dioxo-1H-pyrimidine-5-carboxamide]	< 100	< 100
COc1cc2nccc(Oc3ccc(NC(=O)c4cnc(C)c(-c5ccc(F)cc5)c4O)cc3F)c2cc1OC [Compound 109, N-[4-(6,7-Dimethoxyquinolin-4-yl)oxy-3-fluorophenyl]-5-(4-fluorophenyl)-4-hydroxy-6-methylpyridine-3-carboxamide]	< 100	< 100
COc1ccc2c(Oc3ccc(NC(=O)c4cnc(C)c(-c5ccc(F)cc5)c4O)cc3F)ccnc2c1 [Compound 105, N-[3-Fluoro-4-(7-methoxyquinolin-4-yl)oxyphenyl]-5-(4-fluorophenyl)-4-hydroxy-6-methylpyridine-3-carboxamide]	< 100	100 to 300
CCn1cc(C(=O)Nc2ccc(Oc3ccnc4cc(OC)ccc34)c(F)c2)c(=O)c(-c2ccc(F)cc2)c1C [Compound 107, 1-Ethyl-N-[3-fluoro-4-(7-methoxyquinolin-4-yl)oxyphenyl]-5-(4-fluorophenyl)-6-methyl-4-oxopyridine-3-carboxamide]	100 to 300	> 300
COc1cnc2c(Oc3ccc(NC(=O)c4cn(C)cc(-c5ccc(F)cc5)c4=O)cc3F)ccnc2c1 [Compound 112, N-[3-Fluoro-4-[(7-methoxy-1,5-naphthyridin-4-yl)oxy]phenyl]-5-(4-fluorophenyl)-1-methyl-4-oxopyridine-3-carboxamide]	< 100	> 300
CCn1cc(C(=O)Nc2ccc(Oc3ccnc4cc(OC)c(OC)nc34)c(F)c2)c(=O)c(-c2ccc(F)cc2)c1 [Compound 116, N-[4-[(6,7-Dimethoxy-1,5-naphthyridin-4-yl)oxy]-3-fluorophenyl]-1-ethyl-5-(4-fluorophenyl)-4-oxopyridine-3-carboxamide]	< 100	< 100
COc1cc2nccc(Oc3ccc(NC(=O)c4cn(CCO)cc(-c5ccc(F)cc5)c4=O)cc3F)c2nc1OC [Compound 117, N-[4-[(6,7-Dimethoxy-1,5-naphthyridin-4-yl)oxy]-3-fluorophenyl]-5-(4-fluorophenyl)-1-(2-hydroxyethyl)-4-oxopyridine-3-carboxamide]	< 100	< 100
COc1cc2nccc(Oc3ccc(NC(=O)c4cnc(C)n(-c5ccc(F)cc5)c4=O)cc3F)c2nc1OC [Compound 97, N-[4-[(6,7-Dimethoxy-1,5-naphthyridin-4-yl)oxy]-3-fluorophenyl]-1-(4-fluorophenyl)-2-methyl-6-oxopyrimidine-5-carboxamide]	< 100	< 100
COc1ccc2c(Oc3ccc(NC(=O)c4cnc(C)c(-c5ccc(F)cc5)c4O)cc3)ccnc2c1 [Compound 108, 5-(4-Fluorophenyl)-4-hydroxy-N-[4-(7-methoxyquinolin-4-yl)oxyphenyl]-6-methylpyridine-3-carboxamide]	100 to 300	< 100
